According to patent US20160175485A1, “COMBINATION THERAPY TO PROMOTE WOUND HEALING” (THE REGENTS OF THE UNIVERSITY OF CALIFORNIA, priority 2013, published 2016):

Legend:
[1] = cited from earlier work
RAW 264.7 macrophages = conditions: cited from earlier work
BM-MSC [2] = assay: Western blots in BM-MSC; format: cell-based, human
Procedure: (§1) Epinephrine (EPI: Sigma) and TLR2 ligands (macrophage activating lipoprotein-2: MALP2—that specifically activates TLR2/6 heterodimerization, and heat killed Staphylococcus aureus: HKSA; Invivogen) treatments were carried out at the indicated times and concentrations. All the cells were maintained in 0.5% fetal bovine serum containing culture medium overnight prior to treatment. Cells were exposed to different treatments in fresh serum-free medium. In some experiments, cells were pretreated for 30 minutes with Timolol (10 μM; Sigma) or ICI-118, 551 (ICI; 10 μM; Tocris) followed by EPI and MALP2 treatment as described previously (11-13, 30).
(§2) Twenty five μg of total protein was resolved, transferred, and probed with antibodies for β2-AR (Abcam), phospho beta-adrenergic receptor activated kinase-1 (BARK-1/GRK2 referred to as BARK-1 from here after; GeneTex), TLR2 (Imgenex) Myeloid differentiation factor 88 (MyD88; Imgenex), phospho interleukin receptor activated kinase-1 (pIRAK-1 and IRAK-1; Cell Signaling), phospho ERK1/2 (Santacruz), phenylethanolamine N-methyltransferase (PNMT) and tyrosine hydroxylase (TH), and stripped membranes were further incubated with respective total antibodies or GAPDH or α-tubulin. TLR2 (Imgenex) and β2-AR (Santacruz) antibodies were used for co-immunoprecipation assays and antibody protein complexes were further probed with above antibodies β1). Protein A/G-sepharose beads and isotype matched IgG antibodies were used as negative controls in all the co-immunoprecipitation experiments along with the antibody used for the pull down as a positive control. Band intensities were determined as described previously and normalized to GAPDH/α-tubulin or total protein (BARK-1) and densitometric ratios are presented as fold change vs control β1). For some experiments, cell lysates from three independent experiments were pooled to get enough protein for the assay and repeated three times for densitometry purposes.

BM-MSC [3] = assay: HPLC detection of catecholamines in BM-MSC supernatants; format: cell-based, human; conditions: MALP2 100 ng/ml
Procedure: (§3) Cell culture samples from at least from three independent experiments were acidified with perchloric acid to 0.2N prior to storage at −80° C. for future analysis. The supernatant were applied to conditioned MonoSpin® PBA solid phase extraction spin columns (GL Sciences) and purifications were performed according to the manufacturer's specifications. Catecholamines were eluted in 200 μL of 2% acetic acid.
(§4) HPLC separation was performed using a Synergi™ 4 um Fusion-reverse phase 250×4.6 mm column (Phenomenex) and a HP series 1050 pump and auto injector system. The mobile phase for chromatographic separation was a modification of that used by Leis et al (33). Detection of catecholamine compounds was performed using a LC-4C amperometric detector (Bioanalytical Systems) using potential of […]. Catecholamine levels are presented as pg/μg cell protein.

BM-MSC [4] = assay: Secreted IL-6 ELISA in BM-MSC; format: cell-based, human; conditions: for increase in IL-6 secretion as compared to untreated control cells: four hours, EPI 50 nM, MALP2 100 ng/ml, HKSA 10^4 cells/ml
Excerpt: (§5) Human bone marrow aspirations obtained from four healthy donors were purchased from Lonza. MSC were harvested from bone marrow (BM) following established protocols (26, 27), and used between passages 3-5. Characterization of MSC included differentiation into osteogenic and adipogenic lineage cells, as described previously (27). The stem cell research oversight (SCRO) review board at the University of California, Davis approved all the human cell protocols.
as §1
(§6) Levels of interleukin-6 (IL-6) were measured with an ELISA kit (R&D systems). IL-6 levels were normalized to total cell protein and expressed as pg/μg protein β1).

NHK [5] = assay: Secreted IL-6 ELISA in NHK; format: cell-based, human; conditions: for increase in IL-6 secretion as compared to untreated NHK: four hours, EPI 50 nM, MALP2 100 ng/ml, HKSA 10^4 cells/ml
Excerpt: NHK were isolated from human neonatal foreskins, cultured and maintained, as reported earlier (28,29). NHKs isolated from at least three different foreskins and between passages 3 and 7 were used in all the experiments. The Institutional Review Board at UC Davis approved the protocol for obtaining discarded neonatal foreskins.
as §1, §6

BM-MSC [6] = assay: Real time PCR (TLR2, ADRB2 mRNA) in BM-MSC; format: cell-based, human
Procedure: as §1
mRNA expression was determined by real-time PCR (RT-PCR), using sequence-specific primers and probes. Total RNA was extracted from the cells using Qiagen RNeasy mini kit. The first strand of cDNA was synthesized using 1 μg of total RNA. cDNA (50 ng) was amplified using primer probe sets for TLR2, beta-2-adrenergic receptor (ADRB2) and three housekeeping genes: beta-2-microglobulin, GAPDH, and RPLPO using standard cycling parameters. Data were calculated using the 2-ΔΔCt method and are presented as fold change (ratio of transcripts of gene normalized to the three house-keeping genes) (11-13, 31).

BM-MSC [7] = assay: Single-cell migration of BM-MSC; format: cell-based, human; conditions: EPI 50 nM, MALP2 100 ng/ml, Timolol 10 μM, 30 min pretreatment
Excerpt: as §5, §1

NHK [8] = assay: HPLC detection of catecholamines in NHK supernatants; format: cell-based, human
Procedure: as §3, §4

NHK [9] = assay: Co-immunoprecipitation with β2-AR and TLR2 antibody in NHK; format: cell-based, human; conditions: MALP2 100 ng/ml
Excerpt: as §2

NHK [10] = assay: Western blots (PNMT, TH) in NHK; format: cell-based, human
Procedure: as §1
Twenty five μg of total protein was resolved, transferred, and probed with antibodies for β2-AR (Abcam), phospho beta-adrenergic receptor activated kinase-1 (BARK-1/GRK2 referred to as BARK-1 from here after; GeneTex), TLR2 (Imgenex) Myeloid differentiation factor 88 (MyD88; Imgenex), phospho interleukin receptor activated kinase-1 (pIRAK-1 and IRAK-1; Cell Signaling), phospho ERK1/2 (Santacruz), phenylethanolamine N-methyltransferase (PNMT) and tyrosine hydroxylase (TH), and stripped membranes were further incubated with respective total antibodies or GAPDH or α-tubulin. TLR2 (Imgenex) and β2-AR (Santacruz) antibodies were used for co-immunoprecipation assays and antibody protein complexes were further probed with above antibodies β1). […]

NHK [11] = assay: Scratch wound assay in confluent NHK cultures; format: cell-based, human; conditions: 30 minutes pretreatment; for IL-6 secretion in wounded NHK confluent sheets: antagonists 10 μM; for effect on EPI+MALP2 or EPI+HKSA delayed NHK migration: scratch-wounded NHK, antagonist 10 μM
Procedure: as §6
The rate of healing scratch wounds made in confluent NHK cultures was determined as reported previously (30, 32). Briefly, cells were pretreated with 10 μg/ml mitomycin (EMD Millipore) for 1 hr to inhibit cell proliferation that could skew the data analysis. Wounded cultures were incubated in growth medium (control) containing EPI, TLR2 ligands, and/or Timolol or ICI. Velocity Image analysis software (Perkin Elmer) was used to measure the scratch wound area, which is expressed as percent closed wound.

Bone marrow MSCs = assay: BM-MSC migration tracked for 12 hours after antagonist treatment (FIG. 11); format: cell-based, human; conditions: treated 1 hour, tracked 12 hours
Procedure: FIG. 11 illustrates that results are not limited to one class of beta adrenergic antagonist. Bone marrow MSCs from two different individuals were cultured and treated with either a non-specific beta adrenergic receptor antagonist (timolol) or a beta 2 adrenergic receptor specific antagonist (ICI 118,551) at stated concentrations for 1 hour, then cell migration was tracked for 12 hours. For each experiment 80-90 cells were tracked. Means+/−SEM shown, *=p<0.005.

C57BL/6J mice = assay: Full-thickness cutaneous wounds in EPI stressed mice (osmotic pumps); format: in vivo, mouse; conditions: for wound closure: EPI 7 mg/kg body weight/day, ICI 0.7 mg/kg body weight/day by osmotic pump; for TLR2 expression in wound tissue: day 7 after injury; for IL-6 levels in the wound tissue / phosphorylation of ERK1/2 in wounds: mouse, in vivo
Procedure: C57BL/6J (male; 8-10 week age; Jax Mice) with ad libitum access to food and water were anesthetized using isoflurane and one 6 mm circular diameter full-thickness wound was placed on the dorsal shaved skin β1). Micro-osmotic pumps (0.25 μl/hour; Alzet micro-osmotic pump Model: 1002, Alzet) were implanted on the right flank of the mice to deliver 7 mg/kg body weight/day EPI and 0.7 mg/kg body weight/day of ICI) as we have previously reported (11-13,30). At 7 or 11 days after injury, the mice were euthanized, the wound tissue was harvested by 8 mm punch excision and stored frozen or formalin—fixed until further analysis. Animal protocols were approved by the IACUC at UC Davis.

murine macrophages = conditions: epinephrine pretreatment; cited from earlier work
[12] = tested on: monocytic cell line and rat macrophages; conditions: supraphysiologic levels of EPI (5000-10,000 ng/ml); cited from earlier work
[13] = BM-MSC, Timolol 10 μM, 30 min pretreatment

Molecule: CC(C)(C)NCC(O)COc1cccc2c1CC(O)C(O)C2 (stereo not drawn) [Nadolol]
- lipid solubility [1]: low

Molecule: OCc1cc(C(O)CNCCCCCCOCCCCc2ccccc2)ccc1O (stereo not drawn) [salmeterol]
- IL-1β and IL-6 protein production (RAW 264.7 macrophages): significant increase
- increase in IL-1β transcripts (RAW 264.7 macrophages): 80 fold
- increase in IL-6 transcripts (RAW 264.7 macrophages): 8 fold

Molecule: MALP2
- BARK-1 phosphorylation (BM-MSC [2]): significantly increased
- PNMT and TH enzymes (BM-MSC [2]): induced
- β2-adrenergic receptor protein expression (BM-MSC [2]; MALP2 100 ng/ml): significantly up-regulated
- EPI and norepinephrine levels in cell culture supernatants (BM-MSC [3]): increased
- increase in IL-6 secretion as compared to untreated control cells (BM-MSC [4]; BM-MSC): 2.6 fold
- increase in IL-6 secretion as compared to untreated NHK (NHK [5]): 8.8 fold
- β2-adrenergic receptor mRNA expression (BM-MSC [6]; MALP2 100 ng/ml): significantly up-regulated
- inhibition in migratory speed (BM-MSC [7]): 15%
- catecholamine response of NHKs relative to BM-MSC (NHK [8]; MALP2 treated): 2-4 fold
- EPI and norepinephrine levels in cell culture supernatants (NHK [8]; NHK, MALP2 100 ng/ml): increased
- β2-AR expression and BARK-1 phosphorylation in TLR2 immunoprecipitates (NHK [9]): noticeable increase
- PNMT and TH enzymes (NHK [10]): induced

Molecule: Polymyxin B
- effect of pretreatment on EPI or MALP2 induced IL-6 levels (BM-MSC [4]; BM-MSC, endotoxin control): did not affect

Molecule: CC(C)(C)NC[C@H](O)COc1nsnc1N1CCOCC1 [Timolol]
- decrease of EPI+HKSA induced IL-6 secretion by pretreatment (BM-MSC [4]; [13]): 1.5 fold
- decrease of EPI+MALP2 induced IL-6 secretion by pretreatment (BM-MSC [4]; [13]): 33 fold
- IL-6 levels (BM-MSC [4]; BM-MSC, mean±SD, antagonist 10 μM, 30 min pretreatment): 4.8±2.7 pg/μg protein
- IL-6 release by human keratinocytes under β adrenergic receptor antagonist (NHK [5]): suppression
- IL-6 secretion in wounded NHK confluent sheets (NHK [11]): reverses
- effect on EPI+MALP2 or EPI+HKSA delayed NHK migration (NHK [11]): reverses
- migratory speed of bone marrow derived MSC (Bone marrow MSCs): increase migratory speed

Molecule: Cc1ccc(OCC(O)C(C)NC(C)C)c2c1CCC2 (stereo not drawn) [ICI 118,551]
- IL-6 release by human keratinocytes under β adrenergic receptor antagonist (NHK [5]): suppression
- IL-6 secretion in wounded NHK confluent sheets (NHK [11]): reverses
- effect on EPI+MALP2 or EPI+HKSA delayed NHK migration (NHK [11]): reverses
- wound closure (C57BL/6J mice): reversed
- TLR2 expression in wound tissue (C57BL/6J mice): reversed
- IL-6 levels in the wound tissue (C57BL/6J mice): decreased
- phosphorylation of ERK1/2 in wounds (C57BL/6J mice): increases
- migratory speed of bone marrow derived MSC (Bone marrow MSCs): increase migratory speed

Molecule: CNC[C@H](O)c1ccc(O)c(O)c1 [EPI, Epinephrine]
- BARK-1 phosphorylation (BM-MSC [2]): increased
- MyD88 protein expression (BM-MSC [2]; EPI 50 nM): significantly elevated
- TLR2 protein levels (BM-MSC [2]; EPI 50 nM): significantly increased
- increase in IL-6 secretion as compared to untreated control cells (BM-MSC [4]; BM-MSC): 3.8 fold
- EPI concentration of maximal induction of IL-6 secretion (BM-MSC [4]; EPI 50-1000 nM, 4 hr and 24 hr): 50 nM
- increase in IL-6 secretion as compared to untreated NHK (NHK [5]): 16 fold
- TLR2 mRNA expression (BM-MSC [6]; EPI 50 nM): significantly increased
- TNF-α production with LPS stimulation (murine macrophages): significantly increases
- wound closure (C57BL/6J mice): significantly decreased
- TLR2 expression in wound tissue (C57BL/6J mice): increased
- IL-6 levels in the wound tissue (C57BL/6J mice): significantly elevated
- phosphorylation of ERK1/2 in wounds (C57BL/6J mice): Decreased
- TLR4 mRNA expression [12]: decreases
